{"source": "patent US20090011935A1", "about": "“Method of Inducing Tolerance of Plants Against Bacterioses” (BASF SE, priority 2006, published 2009)", "system": "bacteria", "assay": "Effect of metiram alone on bacteria", "data": [{"substance": "metiram", "values": [{"measurement": "effect on bacteria", "result": "very close to zero"}]}]}
